ChEMBL document CHEMBL1201862, “PubChem BioAssay data set” (2004)
Active and inactive are the calls of the source.

How the values were obtained:
[1] = cytotoxicity toward NIH3T3 fibroblasts, dose response, counter-screen, cell-based, ATP luminescence, mouse fibroblasts (AID 2010); format: functional;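 note: cells exposed to compound for about 90 hours before reading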
[2] = molecular target: T1, DNA repair protein RAD52 homolog (Homo sapiens, UniProt P43351); format: functional, biochemical
T1 sequence (P43351 whole entry): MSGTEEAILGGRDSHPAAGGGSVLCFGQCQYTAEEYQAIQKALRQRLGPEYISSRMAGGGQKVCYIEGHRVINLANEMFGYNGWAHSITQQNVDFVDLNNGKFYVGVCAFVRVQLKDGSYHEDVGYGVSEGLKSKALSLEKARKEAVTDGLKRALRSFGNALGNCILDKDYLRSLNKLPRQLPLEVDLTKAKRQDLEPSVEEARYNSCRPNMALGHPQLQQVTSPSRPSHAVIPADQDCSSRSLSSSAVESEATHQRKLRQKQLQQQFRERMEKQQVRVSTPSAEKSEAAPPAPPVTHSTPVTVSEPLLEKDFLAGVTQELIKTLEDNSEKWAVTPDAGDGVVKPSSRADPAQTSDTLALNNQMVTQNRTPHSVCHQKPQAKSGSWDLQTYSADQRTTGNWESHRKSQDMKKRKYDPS

[3] = inhibitors of intracellular T. cruzi replication, confirmation, NIH3T3 host cells, beta-gal luminescence (AID 2044); format: functional, cell-based;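 note: intracellular parasites grown in NIH/3T3 mouse fibroblasts as host cells; luminescent beta-galactosidase reporter signal from transgenic T. cruzi replicating inside host cells; inhibitors lower the luminescence signal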
[4] = molecular target: T2, Short transient receptor potential channel 4 (Mus musculus, UniProt Q9QUQ5); experiment: mouse TRPC4 channel activators, dose response, cell-based, HEK293 TRPC4/mu-opioid, Fluo-4 calcium (AID 434937); format: functional
T2 sequence (Q9QUQ5 whole entry): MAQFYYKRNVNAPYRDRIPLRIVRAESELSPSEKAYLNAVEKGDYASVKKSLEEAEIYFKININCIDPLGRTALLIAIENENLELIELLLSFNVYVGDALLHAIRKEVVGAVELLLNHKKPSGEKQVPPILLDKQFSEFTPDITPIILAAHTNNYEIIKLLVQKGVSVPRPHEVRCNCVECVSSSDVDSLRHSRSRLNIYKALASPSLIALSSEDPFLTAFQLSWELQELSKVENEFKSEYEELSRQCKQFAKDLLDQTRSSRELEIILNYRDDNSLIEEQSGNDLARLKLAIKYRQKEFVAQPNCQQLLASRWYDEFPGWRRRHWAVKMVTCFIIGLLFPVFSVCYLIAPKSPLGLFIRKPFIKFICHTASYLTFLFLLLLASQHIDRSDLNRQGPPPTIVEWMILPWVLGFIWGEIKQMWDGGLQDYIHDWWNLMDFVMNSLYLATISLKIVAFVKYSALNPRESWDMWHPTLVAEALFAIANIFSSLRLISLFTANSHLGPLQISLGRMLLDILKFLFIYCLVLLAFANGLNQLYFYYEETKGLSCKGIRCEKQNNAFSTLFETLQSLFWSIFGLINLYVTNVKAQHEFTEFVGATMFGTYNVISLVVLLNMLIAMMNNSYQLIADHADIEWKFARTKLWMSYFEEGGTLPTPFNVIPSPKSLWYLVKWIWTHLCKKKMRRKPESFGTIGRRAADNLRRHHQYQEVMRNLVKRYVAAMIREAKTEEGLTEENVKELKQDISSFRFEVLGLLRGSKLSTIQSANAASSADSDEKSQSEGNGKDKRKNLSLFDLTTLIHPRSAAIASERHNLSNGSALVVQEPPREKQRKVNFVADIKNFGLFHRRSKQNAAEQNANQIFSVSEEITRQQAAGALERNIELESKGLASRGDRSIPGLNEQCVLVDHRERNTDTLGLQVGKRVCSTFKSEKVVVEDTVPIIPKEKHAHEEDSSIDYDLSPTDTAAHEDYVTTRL

[5] = molecular target: Glyceraldehyde-3-phosphate dehydrogenase (Homo sapiens, UniProt P04406)
Sequence of Glyceraldehyde-3-phosphate dehydrogenase (P04406 whole entry): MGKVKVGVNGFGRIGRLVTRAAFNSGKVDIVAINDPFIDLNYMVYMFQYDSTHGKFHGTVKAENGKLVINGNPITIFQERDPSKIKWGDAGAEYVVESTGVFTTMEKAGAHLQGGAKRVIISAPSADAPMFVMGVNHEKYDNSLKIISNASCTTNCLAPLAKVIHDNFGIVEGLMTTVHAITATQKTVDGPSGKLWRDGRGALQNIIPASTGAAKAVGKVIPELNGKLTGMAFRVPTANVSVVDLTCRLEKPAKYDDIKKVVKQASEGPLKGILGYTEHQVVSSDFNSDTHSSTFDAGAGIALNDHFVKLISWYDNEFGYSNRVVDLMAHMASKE

[6] = MC4R antagonists, dose response, counter-screen for LGR2 antagonist project, cell-based, plate reader, cherry pick (AID 743444); format: functional;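 note: transfected HEK 293 cells stimulated with alpha-MSH peptide; potency of inhibitors of the alpha-MSH evoked signal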
[7] = inhibitors of SNCA 5'UTR-driven reporter translation, confirmation, H4 neuroglioma cells, luminescence (AID 1988); format: functional, cell-based
[8] = A549 cell cytotoxicity, dose response, cytotoxicity control, plate reader, cherry-pick, antagonist series (AID 743412); format: functional, cell-based
[9] = molecular target: T3, Heat shock factor protein 1 (Mus musculus, UniProt P38532); experiment: inhibition of MG132-induced HSE-luciferase signal, confirmation, cell-based, NIH3T3, luminescence, dose retest (AID 2382); format: functional;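 note: NIH3T3 fibroblasts with HSF1-driven luciferase reporter stressed by proteasome inhibitor MG132; luminescence from HSF1-driven luciferase expression after 8 hours of MG132 stress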
T3 sequence (P38532 whole entry): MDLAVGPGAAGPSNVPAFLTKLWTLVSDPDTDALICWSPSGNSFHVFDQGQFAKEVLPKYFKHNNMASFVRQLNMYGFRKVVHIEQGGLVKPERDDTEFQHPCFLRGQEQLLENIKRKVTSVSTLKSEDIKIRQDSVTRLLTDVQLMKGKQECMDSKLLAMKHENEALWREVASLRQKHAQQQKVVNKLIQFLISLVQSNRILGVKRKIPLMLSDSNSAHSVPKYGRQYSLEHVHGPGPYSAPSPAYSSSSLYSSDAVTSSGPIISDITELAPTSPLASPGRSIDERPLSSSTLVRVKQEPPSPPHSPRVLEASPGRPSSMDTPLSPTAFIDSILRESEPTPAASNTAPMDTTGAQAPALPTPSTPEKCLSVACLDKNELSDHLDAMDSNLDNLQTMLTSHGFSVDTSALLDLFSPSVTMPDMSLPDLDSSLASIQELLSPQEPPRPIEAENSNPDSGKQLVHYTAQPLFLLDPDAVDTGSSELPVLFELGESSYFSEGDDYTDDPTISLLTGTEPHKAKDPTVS

[10] = Luminescence Cell-Based Dose Response HTS to Identify Inhibitors of 5'UTR Stem-Loop Driven Prion Protein mRNA Translation in H4 Neuroglioblastoma Cells. [Related pubchem assays: 1827 (Project Summary), 1813 (Primary HTS)]; format: functional
[11] = inhibitors of firefly luciferase expression or activity, dose response, H4 neuroglioma cells, luminescence (AID 1990); format: functional, cell-based
[12] = LGR2 antagonists, dose response, cell-based, HEK293, CRE-luciferase reporter, cherry pick, set 2 (AID 743343); format: functional;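 note: transfected cells were stimulated with diluted bursicon conditioned medium after compound addition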
[13] = inhibitors of clade B AD8 Env fusion, dose response, cell-based, cherry-pick (AID 652062); format: functional;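 note: luciferase signal from cell-cell fusion driven by HIV-1 clade B AD8 Env; potency is for inhibitors of fusion seen as a drop in luminescence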
[14] = intracellular Trypanosoma cruzi inhibitors in host cells – cell-based, plate reader, cherry-pick samples, set 3, dose response (AID 651818); format: functional;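 note: compounds incubated with infected cells for about four days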
Streptococcus = experiment: Group A Streptococcus viability loss, dose response, counter-screen for streptokinase expression inhibitor project, luminescence, BacTiterGlo (AID 1915); format: functional, organism-based;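 note: potency for reduction of bacterial viability or growth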
[15] = molecular target: T4, Histone-lysine N-methyltransferase NSD2 (Homo sapiens, UniProt O96028); format: biochemical
T4 sequence (O96028 whole entry): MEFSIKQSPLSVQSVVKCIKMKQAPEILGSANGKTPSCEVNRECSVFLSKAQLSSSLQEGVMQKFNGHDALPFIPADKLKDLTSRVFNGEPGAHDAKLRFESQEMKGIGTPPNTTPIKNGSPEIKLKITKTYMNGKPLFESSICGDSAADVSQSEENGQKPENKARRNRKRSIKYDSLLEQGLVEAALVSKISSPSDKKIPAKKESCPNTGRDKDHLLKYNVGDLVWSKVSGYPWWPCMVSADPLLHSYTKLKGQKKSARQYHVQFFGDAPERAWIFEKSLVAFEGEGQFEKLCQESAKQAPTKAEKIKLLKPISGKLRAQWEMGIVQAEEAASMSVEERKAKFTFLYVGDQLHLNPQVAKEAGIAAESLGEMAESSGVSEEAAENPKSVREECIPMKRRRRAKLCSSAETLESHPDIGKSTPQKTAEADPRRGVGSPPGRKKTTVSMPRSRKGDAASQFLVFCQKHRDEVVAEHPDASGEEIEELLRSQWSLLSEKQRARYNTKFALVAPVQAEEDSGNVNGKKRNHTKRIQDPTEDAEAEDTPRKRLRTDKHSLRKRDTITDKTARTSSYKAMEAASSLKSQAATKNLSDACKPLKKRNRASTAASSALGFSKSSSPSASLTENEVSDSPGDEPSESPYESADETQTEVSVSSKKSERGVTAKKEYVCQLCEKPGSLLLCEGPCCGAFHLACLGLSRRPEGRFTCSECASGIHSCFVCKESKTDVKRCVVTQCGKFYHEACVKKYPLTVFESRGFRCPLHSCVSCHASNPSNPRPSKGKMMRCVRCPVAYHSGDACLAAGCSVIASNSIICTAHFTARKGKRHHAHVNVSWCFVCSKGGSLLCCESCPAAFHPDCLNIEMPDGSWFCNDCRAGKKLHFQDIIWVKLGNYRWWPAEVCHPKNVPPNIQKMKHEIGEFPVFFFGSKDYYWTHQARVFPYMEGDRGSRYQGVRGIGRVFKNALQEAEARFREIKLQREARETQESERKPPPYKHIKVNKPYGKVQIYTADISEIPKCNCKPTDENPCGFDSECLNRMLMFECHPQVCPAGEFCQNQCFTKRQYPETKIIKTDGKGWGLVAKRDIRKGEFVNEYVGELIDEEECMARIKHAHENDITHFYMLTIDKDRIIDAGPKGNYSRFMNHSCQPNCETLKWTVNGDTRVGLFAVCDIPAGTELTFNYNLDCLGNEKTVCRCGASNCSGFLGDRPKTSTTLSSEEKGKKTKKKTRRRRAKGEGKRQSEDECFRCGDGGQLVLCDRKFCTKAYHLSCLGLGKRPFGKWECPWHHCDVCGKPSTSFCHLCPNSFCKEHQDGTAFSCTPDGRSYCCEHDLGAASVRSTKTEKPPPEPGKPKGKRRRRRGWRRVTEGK

[16] = tested on: Streptococcus sp. 'group A'; experiment: growth inhibition of control SK(-) GAS strain, dose response, counter-screen for streptokinase expression inhibitor project, luminescence, kanamycin, BacTiterGlo, confirmation (AID 1900); format: functional, organism-based
Streptokinase A = molecular target: T5, Streptokinase A (Streptococcus pyogenes serotype M1, UniProt P10520); experiment: S. pyogenes streptokinase expression inhibitors, potency, dose response, plasminogen activation absorbance, OD405 (AID 1914); format: functional, Streptococcus pyogenes M1 GAS;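 note: secreted streptokinase activity via plasminogen activation per viability signal from cell pellet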
T5 sequence (P10520 whole entry): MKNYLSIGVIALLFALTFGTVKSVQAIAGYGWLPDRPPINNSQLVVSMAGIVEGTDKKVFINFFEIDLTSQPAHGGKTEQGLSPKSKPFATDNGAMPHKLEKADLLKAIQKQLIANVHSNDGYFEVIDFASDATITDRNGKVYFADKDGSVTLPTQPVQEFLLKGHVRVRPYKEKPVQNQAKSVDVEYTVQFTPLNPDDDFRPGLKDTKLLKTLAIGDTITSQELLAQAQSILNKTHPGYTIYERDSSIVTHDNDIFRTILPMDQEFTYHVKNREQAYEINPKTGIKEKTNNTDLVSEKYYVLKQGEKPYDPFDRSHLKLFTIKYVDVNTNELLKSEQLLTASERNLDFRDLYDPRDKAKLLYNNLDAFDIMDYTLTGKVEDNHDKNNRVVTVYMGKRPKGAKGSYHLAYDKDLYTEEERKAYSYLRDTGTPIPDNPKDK

Structure (SMILES): Cc1cc(C)c2nc(N(CCCN(C)C)C(=O)c3ccc4c(c3)CCCC4)sc2c1
- EC50 [1]: 4.48 µM (active)
- AC50 [2]: 13.4 µM (active)
- EC50 [3]: 0.727 µM (active)

Structure (SMILES): COc1ccccc1N1CCN(C(c2cccs2)C(C)NC(=O)c2cccs2)CC1 (stereo not given)
- EC50 [4]: 0.335 µM (active)

Structure (SMILES): Cc1cc(C)c(NS(=O)(=O)c2ccc(O)c(C(=O)O)c2)c(C)c1
- IC50 [5]: > 100 µM (not active)

Structure (SMILES): COc1cc(/C=C2\SC(=O)N(CCN)C2=O)ccc1OS(=O)(=O)c1cc(C)ccc1C
- AC50 [2]: 5.08 µM (active)

Structure (SMILES): CCOc1ccc(S(=O)(=O)Nc2ccc(O)c(C(=O)O)c2)cc1
- IC50 [5]: > 100 µM (not active)

Structure (SMILES): CN1CCN(c2ccc(NC(=O)N3CCc4ccccc43)cc2)CC1
- AC50 [6]: 4.38 µM (active)
- EC50 [7]: > 120 µM (not active)
- AC50 [8]: > 52 µM (inactive)
- EC50 [9]: < 0.16 µM (active)
- EC50 [10]: 9.49 µM (active)
- EC50 [11]: 6.81 µM (inconclusive)
- AC50 [12]: 2.2 µM (active)

Structure (SMILES): CCC1CCCCN1S(=O)(=O)c1ccc(C(=O)N(CCCN(C)C)c2nc3cc4c(cc3s2)OCO4)cc1 (stereo not given)
- EC50 [4]: 6.68 µM (active)

Structure (SMILES): CN(C)CCCNC(=O)C(=O)Nc1cc2c3c(c1)CC(=O)N3CCC2
- AC50 [2]: 15.4 µM (active)

Structure (SMILES): O=C(COC(=O)c1ncc(Cl)c(Cl)c1Cl)NCc1cccs1
- AC50 [13]: 1.12 µM (active)

Structure (SMILES): COc1ccc(NC(=O)Nc2ccc3c(c2)C(=O)N([C@@H](C)CO)C[C@H](C)[C@@H](CN(C)Cc2ccc(-c4ccccc4)cc2)O3)cc1
- AC50 [14]: 5.13 µM (active)

Structure (SMILES): COc1ccc(CN(C)C[C@H]2Oc3c(NC(=O)Nc4ccc(C(F)(F)F)cc4)cccc3C(=O)N([C@H](C)CO)C[C@@H]2C)cc1
- AC50 [14]: 3.26 µM (active)

Structure (SMILES): C[C@@H]1CN([C@@H](C)CO)C(=O)c2cccc(NC(=O)c3ccc(-c4nccs4)cc3)c2O[C@@H]1CN(C)Cc1ccc(C(=O)Nc2ccccc2N)cc1
- AC50 [14]: 1.61 µM (active)

Structure (SMILES): C[C@@H]1CN([C@H](C)CO)C(=O)c2cccc(NS(=O)(=O)c3ccc(Cl)cc3)c2O[C@H]1CN(C)Cc1ccc(C(=O)Nc2ccccc2N)cc1
- AC50 [14]: 1.77 µM (active)

Structure (SMILES): C[C@@H]1CCCCO[C@H](CN(C)Cc2ccc3c(c2)OCO3)[C@@H](C)CN([C@H](C)CO)C(=O)c2cc(NC(=O)Nc3ccc(C(F)(F)F)cc3)ccc2O1
- AC50 [14]: 2.16 µM (active)

Structure (SMILES): C[C@H](CO)N1C[C@H](C)[C@@H](CN(C)S(=O)(=O)c2ccc(Cl)cc2)Oc2c(cccc2N(C)C)C1=O
- AC50 [14]: 10.1 µM (active)

Structure (SMILES): C[C@H]1CN([C@@H](C)CO)C(=O)Cc2cc(NS(=O)(=O)c3ccccc3)ccc2O[C@@H]1CN(C)Cc1ccc(-c2ccccc2)cc1
- AC50 [14]: 5.32 µM (active)

Structure (SMILES): CCOC(=O)C1=C(C)N=c2s/c(=C\c3ccc(O)c([N+](=O)[O-])c3)c(=O)n2C1c1ccccc1OC (stereo not given)
- EC50 (Streptococcus): 31.3 µM (active)
- AC50 [15]: > 20 µM (inactive)
- EC50 [16]: 7.08 µM (active)
- EC50 (Streptokinase A): 20.4 µM (active)

Structure (SMILES): O=C(N/N=C/c1ccco1)C1COc2ccccc2O1 (stereo not given)
- EC50 [4]: 4.22 µM (active)

Structure (SMILES): N=C(Nc1ccccc1)Nc1ccccc1
- EC50 [4]: 10.6 µM (active)
